Laboratory results published in patent US9868737B2, “Pyridino[1,2-A]pyrimidone analogue used as MTOR/P13K inhibitor” (CISEN PHARMACEUTICAL CO., LTD., priority 2014, dated 2018).
Like-named read-outs stand apart in the source and are kept apart here.

Test system: MCF-7 cells
Test: In vitro test of cell activity (MCF-7 cells, insulin stimulation, ELISA-One fluorescence)
Format: cell-based
Conditions: Homo sapiens, MCF7, MCF-7 cells; for inhibition at 0.5 µM: conc. 0.5 μM
Procedure: Example In Vitro Tests of Cell Activities Experimental Steps and Methods:
1) MCF-7 cells were inoculated at the density of 2.5×10^4 cells/well into 96-well plates (the culture medium used should be a complete culture medium containing 10% FBS).
2) On the next day, the medium in each well was drawn out. A certain concentration (preliminary screening) or a series of concentration (IC50 test) of compounds were dissolved in a culture medium without serum and added to the 96-well plates to culture cells for 2 hours.
3) Insulin was dissolved in a culture medium without serum, added to the cultured cells and incubated for 30 minutes, wherein the final concentration of insulin was […].
4) A lysis solution was prepared according to the following method during the waiting period for the reaction:
a) Enhancer solution was removed from the refrigerator to melt in advance.
b) Enhancer solution was diluted 10 times with the 5× Lysis Buffer to give a concentrated lysis solution.
c) The concentrated lysis solution was diluted 5 times with double distilled water to give the lysis solution.
5) The medium in each well was completely removed and each well was quickly rinsed with PBS once.
6) 150 μl of the freshly prepared lysis solution was added to each well and shaked at room temperature for 10 minutes.
7) After confirming that all cells were detached, the lysis solution together with the cell fragments was transferred into a 1.5 ml tube.
8) The tube was shaked on vortes mixer to make the lysis solution and cells mix completely and then the mixture was centrifugated at 4° C. under 12000 g for 10 minutes.
9) The number of strips of ELISA-one micro-well plate that is required was calculated. The needless strips were removed from the frame, put back into the storage bag and sealed. Before the strips of micro-well plate were used, 200 μl of double distilled water was used to rinse each well to remove preservative.
10) 50 μl of antibody mixture was added to each well. (The antibody mixture solution was prepared by mixing the medium antibody reagent and the enzyme labeled antibody reagent with an equal proportion. The preparation of antibody mixture didn't need vortex.)
11) 25 μl of cell lysates was added to each well of ELISA-One micro-well plate. The micro-well plate was covered with adhesive sealing film and incubated on a micro-well plate oscillation instrument at room temperature for 1 hour.
12) Each well was rinsed with 150 μl of 1× rinsing buffer 3 times. After the last rinsing, the rinsing buffer in the well was completely removed. If necessary, the 1× rinsing buffer could be allowed to stay in the micro-well plate for up to 30 minutes so that the substrate mixed solution could be prepared during such time period.
13) The substrate mixed solution should be prepared just before each use, 10 μl of the substrate mixed solution was added to each well and the micro-well plate was sealed with tin-foil and incubated on the micro-well plate oscillation instrument at room temperature for 10 minutes.
14) 10 μl of stop solution was added to each well and mixed slightly (5-10 seconds) on the micro-well plate oscillation instrument.
15) The corresponding ELISA-One filter group was assembled and used to read the fluorescence signal intensity.

Row | SMILES | inhibition at 0.5 µM (read-out: % inhibition AKT) [%] | inhibition at 0.5 µM (read-out: % inhibition p70s6k) [%] | IC50 (read-out: IC50 p-AKT) [µM] | IC50 (read-out: IC50 p-p70S6K) [µM]
1 | COc1ncc(-c2ccc3nccc(=O)n3c2C)cc1NS(=O)(=O)c1ccc(F)cc1F [compound 52, 2,4-difluoro-N-(2-methoxy-5-(6-methyl-4-oxo-4H-pyrido[1,2-a]pyrimidin-7-yl)pyridin-3-yl)benzsulfamide] | 69.3 | 50.3 | – | –
2 | COc1ncc(-c2ccc3nccc(=O)n3c2C)cc1NS(=O)(=O)c1cccc(F)c1 [compound 53] | 68 | 40.9 | – | –
3 | COc1ncc(-c2ccc3nccc(=O)n3c2C)cc1NS(=O)(=O)c1ccccc1Cl [compound 54] | 83.1 | 50.8 | – | –
4 | COc1ncc(-c2ccc3nccc(=O)n3c2C)cc1NS(=O)(=O)c1ccccc1F [compound 55] | 65.7 | 42.3 | – | –
5 | COc1ncc(-c2ccc3nccc(=O)n3c2C)cc1NS(=O)(=O)c1ccc(F)cc1Cl [compound 56] | 80.2 | 53.3 | – | –
6 | COc1ncc(-c2ccc3nccc(=O)n3c2C)cc1NS(=O)(=O)c1ccc(F)cc1C [compound 57] | 58.6 | 47.2 | – | –
7 | COc1ncc(-c2ccc3nccc(=O)n3c2C)cc1NS(=O)(=O)c1c(F)cccc1F [compound 58] | 60.3 | 32.8 | – | –
8 | COc1ncc(-c2ccc3nccc(=O)n3c2C)cc1NS(=O)(=O)c1ccc(C#N)cc1 [compound 59] | 59.7 | 26.5 | – | –
9 | COc1ncc(-c2ccc3nccc(=O)n3c2C)cc1NS(=O)(=O)c1cc(F)ccc1F [compound 60] | 67.9 | 43.9 | – | –
10 | COc1ncc(-c2ccc3ncc(F)c(=O)n3c2)cc1NS(=O)(=O)c1ccc(F)cc1Cl [compound 62] | 90.2 | 90.8 | ≤ 0.05 | 0.05 to 0.1
11 | COc1ncc(-c2ccc3ncc(F)c(=O)n3c2)cc1NS(=O)(=O)c1ccccc1Cl [compound 63] | 89.5 | 92.9 | ≤ 0.05 | ≤ 0.05
12 | COc1ncc(-c2ccc3ncc(F)c(=O)n3c2)cc1NS(=O)(=O)c1ccccc1F [compound 64] | 87.8 | 91.7 | ≤ 0.05 | ≤ 0.05
13 | COc1ncc(-c2ccc3ncc(F)c(=O)n3c2)cc1NS(=O)(=O)c1cc(F)ccc1F [compound 65] | 84.8 | 89.7 | ≤ 0.05 | 0.05 to 0.1
14 | COc1ncc(-c2ccc3ncc(F)c(=O)n3c2)cc1NS(=O)(=O)c1ccc(F)cc1C [compound 66] | 89 | 91.3 | ≤ 0.05 | ≤ 0.05
15 | COc1ncc(-c2ccc3ncc(F)c(=O)n3c2)cc1NS(=O)(=O)c1cccc(F)c1 [compound 67] | 85.8 | 89.7 | ≤ 0.05 | ≤ 0.05
16 | COc1ncc(-c2ccc3ncc(F)c(=O)n3c2)cc1NS(=O)(=O)c1c(F)cccc1F [compound 68] | 88 | 90.3 | ≤ 0.05 | 0.05 to 0.1
17 | COc1ncc(-c2ccc3ncc(F)c(=O)n3c2)cc1NS(=O)(=O)c1ccc(C(F)(F)F)cc1 [compound 69] | 85.4 | 87.6 | ≤ 0.05 | 0.05 to 0.1
18 | COc1ncc(-c2ccc3ncc(F)c(=O)n3c2)cc1NS(=O)(=O)c1ccc(C#N)cc1 [compound 70] | 75.4 | 99 | 0.05 to 0.1 | 0.05 to 0.1
19 | COc1ncc(-c2ccc3nccc(=O)n3n2)cc1NS(=O)(=O)c1ccc(F)cc1F [compound 71, 2,4-difluoro-N-(2-methoxy-5-(4-oxo-4H-pyrimido[1,2-b]pyridazin-7-yl)pyridin-3-yl)benzsulfamide] | 63.2 | 20.7 | – | –
20 | COc1ncc(-c2ccc3nccc(=O)n3n2)cc1NS(=O)(=O)c1ccccc1F [compound 72] | 51.1 | 10.2 | – | –
21 | COc1ncc(-c2ccc3nccc(=O)n3n2)cc1NS(=O)(=O)c1c(F)cccc1F [compound 73] | 40.5 | -2.1 | – | –

Row | SMILES | inhibition at 0.5 µM (read-out: % inhibition AKT) [%] | inhibition at 0.5 µM (read-out: % inhibition p70s6k) [%] | IC50 (read-out: IC50 p-AKT) [µM] | IC50 (read-out: IC50 p-p70S6K) [µM]
22 | COc1ncc(-c2ccc3nccc(=O)n3n2)cc1NS(=O)(=O)c1ccccc1Cl [compound 74] | 74.1 | 26 | – | –
23 | COc1ncc(-c2ccc3nccc(=O)n3n2)cc1NS(=O)(=O)c1cc(F)ccc1F [compound 76] | 54.3 | 12.2 | – | –
24 | COc1ncc(-c2ccc3nccc(=O)n3n2)cc1NS(=O)(=O)c1ccc(C#N)cc1 [compound 77] | 50 | 4.8 | – | –
25 | COc1ncc(-c2ccc3nccc(=O)n3n2)cc1NS(=O)(=O)c1ccc(F)cc1Cl [compound 78] | 72.6 | 32.6 | – | –
26 | COc1ncc(-c2ccc3nccc(=O)n3n2)cc1NS(=O)(=O)c1cccc(F)c1 [compound 79] | 63.3 | 15.9 | – | –
27 | COc1ncc(-c2ccc3nccc(=O)n3n2)cc1NS(=O)(=O)c1ccc(C(F)(F)F)cc1 [compound 80] | 54.6 | 14.4 | – | –
28 | COc1ncc(-c2ccc3ncc(C)c(=O)n3c2)cc1NS(=O)(=O)c1ccc(Cl)cc1F [compound 82] | 92.1 | 88.1 | ≤ 0.05 | 0.1 to 0.25
29 | COc1ncc(-c2ccc3ncc(C)c(=O)n3c2)cc1NS(=O)(=O)c1ccccc1F [compound 84] | 93.8 | 88.7 | ≤ 0.05 | 0.05 to 0.1
30 | COc1ncc(-c2ccc3ncc(C)c(=O)n3c2)cc1NS(=O)(=O)c1ccccc1Cl [compound 85] | 95.8 | 88.3 | ≤ 0.05 | 0.05 to 0.1
31 | COc1ncc(-c2ccc3ncc(C)c(=O)n3c2)cc1NS(=O)(=O)c1cccc(F)c1 [compound 86] | 92.8 | 88.1 | ≤ 0.05 | 0.1 to 0.25
32 | COc1ncc(-c2ccc3ncc(N)c(=O)n3c2)cc1NS(=O)(=O)c1ccc(F)cc1F [compound 87, N-(5-(3-amino-4-oxo-4H-pyrido[1,2-a]pyrimidin-7-yl)-2-methoxpyridin-3-yl)-2,4-difluorobenzsulfamide] | 92.1 | 88.1 | ≤ 0.05 | 0.1 to 0.25
33 | COc1ncc(-c2ccc3ncc(N)c(=O)n3c2)cc1NS(=O)(=O)c1ccc(F)cc1Cl [compound 88] | 94.8 | 91 | ≤ 0.05 | 0.1 to 0.25
34 | COc1ncc(-c2ccc3ncc(N)c(=O)n3c2)cc1NS(=O)(=O)c1ccc(F)cc1C [compound 89] | 93 | 88.1 | ≤ 0.05 | 0.1 to 0.25
35 | COc1ncc(-c2ccc3ncc(N)c(=O)n3c2)cc1NS(=O)(=O)c1ccccc1F [compound 90] | 92.7 | 87.9 | ≤ 0.05 | 0.1 to 0.25
36 | COc1ncc(-c2ccc3ncc(N)c(=O)n3c2)cc1NS(=O)(=O)c1ccccc1Cl [compound 91] | 94.6 | 89.2 | ≤ 0.05 | 0.05 to 0.1
37 | COc1ncc(-c2ccc3ncc(N)c(=O)n3c2)cc1NS(=O)(=O)c1sccc1C [compound 92] | – | – | ≤ 0.05 | –
38 | COc1ncc(-c2ccc3ncc(N)c(=O)n3c2)cc1NS(=O)(=O)c1sc(C)nc1C [compound 93] | – | – | ≤ 0.05 | –
39 | COc1ncc(-c2ccc3ncc(N)c(=O)n3c2)cc1NS(=O)(=O)c1sc(N)nc1C [compound 94] | – | – | ≤ 0.05 | –
40 | CNc1cnc2ccc(-c3cnc(OC)c(NS(=O)(=O)c4ccc(F)cc4F)c3)cn2c1=O [compound 95, 2,4-difluoro-N-(2-methoxy-5-(3-(methylamino)-4-oxo-4H-pyrido[1,2-a]pyrimidin-7-yl)pyridin-3-yl)benzulfamide] | – | – | 0.1 to 0.25 | –
41 | COc1ncc(-c2ccc3ncc(N(C)C)c(=O)n3c2)cc1NS(=O)(=O)c1ccc(F)cc1F [compound 96] | – | – | > 0.25 | –
42 | COc1ncc(-c2ccc3ncc(NC(C)=O)c(=O)n3c2)cc1NS(=O)(=O)c1ccc(F)cc1F [compound 97] | – | – | > 0.25 | –
